Source: patent US20240335431A1, “1-H-PYRROLO[2,3-c]PYRIDINE COMPOUNDS” (Acerta Pharma B.V., priority 2023, published 2024)
Where two headings read alike, the source gives them in different places.

Legend:
OCI-AML3 cells = test: Proliferation assay, OCI-AML3 (CellTiter-Glo, 7 days); format: cell-based, human
Outline: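 Cells seeded at 125 (MOLM-13), 300 (MV4;11), 75 (OCI-AML3) or 200 (HEL) per well were exposed to 3.16-fold compound dilutions (0.1% DMSO) for 7 days at 37° C. Viability by CellTiter-Glo luminescence, normalized to DMSO (100%) and day-0 plate (0%); IC50 from one-site dose-response fit.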

[1] = Human hepatocyte intrinsic clearance assay; format: in vitro ADME; settings: human hepatocytes
Outline: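 Pooled 10-donor cryopreserved human hepatocytes in suspension (0.25×10^6 cells in 0.25 mL) incubated with test compound at […], 37° C. Samples taken 0.5–120 min and quenched in acetonitrile, parent remaining measured by LC-MS/MS. CLint ([…]) derived from slope of ln % remaining vs time.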

muscarinic M2 receptor = muscarinic M2 receptor (Homo sapiens (Human), UniProt P08172); test: Muscarinic M2 receptor binding assay (assay 1); settings: [3H]AF-DX 384 2 nM, Cheng Prusoff
muscarinic M2 receptor, sequence (P08172 whole entry): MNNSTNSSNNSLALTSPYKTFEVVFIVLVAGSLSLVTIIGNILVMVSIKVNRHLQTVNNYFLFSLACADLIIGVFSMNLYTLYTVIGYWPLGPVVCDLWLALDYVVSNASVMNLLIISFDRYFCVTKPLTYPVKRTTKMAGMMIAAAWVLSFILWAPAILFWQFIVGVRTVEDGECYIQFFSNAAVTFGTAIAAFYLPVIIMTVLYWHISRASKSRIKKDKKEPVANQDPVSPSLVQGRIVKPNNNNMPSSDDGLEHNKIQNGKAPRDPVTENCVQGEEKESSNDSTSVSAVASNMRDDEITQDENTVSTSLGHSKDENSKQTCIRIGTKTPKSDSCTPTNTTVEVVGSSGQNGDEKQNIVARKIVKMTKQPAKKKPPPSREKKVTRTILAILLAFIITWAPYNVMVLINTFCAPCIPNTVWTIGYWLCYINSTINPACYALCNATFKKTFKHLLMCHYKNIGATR
Outline: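 Membrane homogenates (60 μg protein) were incubated with 2 nM [3H]AF-DX 384 for 60 min at 22° C in Tris-HCl pH 7.4 with NaCl, KCl, MgCl2 and EDTA; 1 μM atropine defined nonspecific binding. Filtration and scintillation counting gave percent inhibition of specific binding, with Ki by Cheng-Prusoff.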

SMILES | IC50 (OCI-AML3 cells) | HH CLint [1] | Ki (muscarinic M2 receptor) | IC50 (OCI-AML3 cells; Homo sapiens, OCI-AML-3, 168 h)
CCN(C(=O)c1cc(F)ccc1-n1c(C)c(C(=O)C2CCN(C(=O)[C@H]3NC[C@@H]4C[C@@H]43)CC2)c2ccncc21)C(C)C [Example 47, 2-(3-(1-((1S,2S,5R)-3-Azabicyclo[3.1.0]hexane-2-carbonyl)piperidine-4-carbonyl)-2-methyl-1H-pyrrolo[2,3-c]pyridin-1-yl)-N-ethyl-5-fluoro-N-isopropylbenzamide] | – | 2.1 μl/min/1E6 | 7300 nM | 26 nM
CC(C)N(C(=O)c1cc(F)ccc1-n1cc(C(=O)[C@H]2CCN(C(=O)[C@H]3N[C@@H]4CC[C@H]3C4)C2)c2ccncc21)C(C)C [Example 2, 2-(3-((S)-1-((1R,3S,4S)-2-Azabicyclo[2.2.1]heptane-3-carbonyl)pyrrolidine-3-carbonyl)-1H-pyrrolo[2,3-c]pyridin-1-yl)-5-fluoro-N,N-diisopropylbenzamide] | – | <1.0 μl/min/1E6 | 800 nM | 126 nM
CC(C)N(C(=O)c1cc(F)ccc1-n1cc(C(=O)[C@H]2CCN(C[C@H]3CC[C@H](NS(C)(=O)=O)CC3)C2)c2ccncc21)C(C)C [Example 1, 5-Fluoro-N,N-diisopropyl-2-(3-((S)-1-(((1r,4S)-4-(methylsulfonamido)-cyclohexyl)methyl)pyrrolidine-3-carbonyl)-1H-pyrrolo[2,3-c]pyridin-1-yl)benzamide] | – | 2.6 μl/min/1E6 | 8100 nM | 313 nM
CC(C)c1cnccc1-c1cc(F)ccc1-n1cc(C(=O)C2CN(C(=O)[C@H]3N[C@@H]4CC[C@H]3C4)C2)c2ccncc21.O=CO [Example 11, (1-((1R,3S,4S)-2-Azabicyclo[2.2.1]heptane-3-carbonyl)azetidin-3-yl)(1-(4-fluoro-2-(3-isopropylpyridin-4-yl)phenyl)-1H-pyrrolo[2,3-c]pyridin-3-yl)methanone 1·formic acid] | – | <1.0 μl/min/1E6 | 5000 nM | 51 nM
Cc1c(C(=O)C2CCN(C(=O)[C@H]3NC[C@@H]4C[C@@H]43)CC2)c2ccncc2n1-c1ccc(F)cc1-c1cnccc1C(C)C [Example 54, (1-((1S,2S,5R)-3-Azabicyclo[3.1.0]hexane-2-carbonyl)piperidin-4-yl)(1-(4-fluoro-2-(4-isopropylpyridin-3-yl)phenyl)-2-methyl-1H-pyrrolo[2,3-c]pyridin-3-yl)methanone] | – | 6.4 μl/min/1E6 | 3500 nM | 43 nM
CC(C)N(C(=O)c1cc(F)ccc1-n1cc(C(=O)C2CCN(C(=O)[C@H]3N[C@@H]4CC[C@H]3C4)CC2)c2ccncc21)C(C)C [Example 16, 2-(3-(1-((1R,3S,4S)-2-Azabicyclo[2.2.1]heptane-3-carbonyl)piperidine-4-carbonyl)-1H-pyrrolo[2,3-c]pyridin-1-yl)-5-fluoro-N,N-diisopropylbenzamide] | – | <1.0 μl/min/1E6 | 200 nM | 51 nM
Cc1c(C(=O)C2CCN(C(=O)[C@@H]3CCC4(CC4)N3)CC2)c2ccncc2n1-c1ccc(F)cc1C(=O)N1[C@H](C)COC[C@H]1C (single isomer, unassigned) [Example 58-2] | – | 1.9 μl/min/1E6 | 4200 nM | 35 nM
CC(C)N(C(=O)c1cc(F)ccc1-n1cc(C(=O)C2CCN(C(=O)[C@@H]3CCC(C)(C)N3)CC2)c2ccncc21)C(C)C [Example 27, (S)-2-(3-(1-(5,5-Dimethylpyrrolidine-2-carbonyl)piperidine-4-carbonyl)-1H-pyrrolo[2,3-c]pyridin-1-yl)-5-fluoro-N,N-diisopropylbenzamide] | – | <1.0 μl/min/1E6 | 1600 nM | 34 nM
CC(C)N(C(=O)c1cc(F)ccc1-n1cc(C(=O)C2CN(C(=O)[C@H]3N[C@@H]4CC[C@H]3C4)C2)c2ccncc21)C(C)C [Example 5, 2-(3-(1-((1R,3S,4S)-2-Azabicyclo[2.2.1]heptane-3-carbonyl)azetidine-3-carbonyl)-1H-pyrrolo[2,3-c]pyridin-1-yl)-5-fluoro-N,N-diisopropylbenzamide] | – | <1.0 μl/min/1E6 | 6600 nM | 125 nM
CC(C)N(C(=O)c1cc(F)ccc1-n1cc(C(=O)C2CCN(C(=O)[C@@H]3CC4(CC4)CN3)CC2)c2ccncc21)C(C)C [Example 26, (S)-2-(3-(1-(5-Azaspiro[2.4]heptane-6-carbonyl)piperidine-4-carbonyl)-1H-pyrrolo[2,3-c]pyridin-1-yl)-5-fluoro-N,N-diisopropylbenzamide] | – | <1.0 μl/min/1E6 | 2600 nM | 140 nM

Continued, values first:

IC50 (OCI-AML3 cells) | HH CLint [1] | Ki (muscarinic M2 receptor) | IC50 (OCI-AML3 cells; Homo sapiens, OCI-AML-3, 168 h) | SMILES
14 nM | 3.3 μl/min/1E6 | 19800 nM | – | Cc1c(C(=O)[C@@H]2CCN(C(=O)[C@H]3NC[C@@H]4C[C@@H]43)[C@@H](C)C2)c2ccncc2n1-c1ccc(F)cc1C(=O)N(CC(F)(F)F)C(C)C (single isomer, unassigned) [Example 53-3, 2-(3-((2R*,4S*)-1-((1S,2S,5R)-3-Azabicyclo[3.1.0]hexane-2-carbonyl)-2-methylpiperidine-4-carbonyl)-2-methyl-1H-pyrrolo[2,3-c]pyridin-1-yl)-5-fluoro-N-isopropyl-N-(2,2,2-trifluoroethyl)benzamide]
– | 4.2 μl/min/1E6 | 51900 nM | 29 nM | Cc1c(C(=O)C2CCN(C(=O)[C@H]3NC[C@@H]4C[C@@H]43)CC2)c2ccncc2n1-c1ccc(F)cc1C(=O)N(C(C)C)C(C)C (single isomer, unassigned) [Example 55-2]
– | 3.2 μl/min/1E6 | > 100000 nM | 77 nM | Cc1c(C(=O)C2CCN(C(=O)[C@H]3NC[C@@H]4C[C@@H]43)CC2)c2ccncc2n1-c1ccc(F)cc1C(=O)N(C(C)C)[C@H](C)C(F)(F)F (single isomer, unassigned) [Example 57-1]
23 nM | <1.0 μl/min/1E6 | 19000 nM | – | CCN(C(=O)c1cc(F)ccc1-n1c(C)c(C(=O)C2CCN(C(=O)[C@H]3NC[C@@H]4C[C@@H]43)CC2)c2ccncc21)C(C)C (single isomer, unassigned) [Example 48-2]
